These results are taken from US20240261310A1, “APPLICATION OF ALGINATE OLIGOSACCHARIDES” (HAITANG (JIANGSU) BIOTECHNOLOGY COMPANY, LTD., priority 2021, published 2024).

For experiment [1], the system named is mice with AKI induced by endotoxin phosphorus lipopolysaccharides (LPS). Description: Mouse acute kidney injury induced by endotoxin phosphorus lipopolysaccharides (LPS). The experiment is classed as in vivo. Particulars: for level of serum creatinine: C57/B16 mice, LPS 15 mg/kg i.p., 24 h; for level of serum creatinine / gene expressions of inflammatory factors (IL-1β, IL-18, TNF-α, MCP-1) / mRNA levels of Kim-1 and NGAL in kidney tissues / protein expressions of renal inflammatory factors (TLR4, p-NFκB/NFκB, pro-IL-1β/IL-1β): 0.1 g/kg/day intragastric; for gene expressions of inflammatory factors (IL-1β, IL-18, TNF-α, MCP-1) / mRNA levels of Kim-1 and NGAL in kidney tissues / protein expressions of renal inflammatory factors (TLR4, p-NFκB/NFκB, pro-IL-1β/IL-1β): renal cortex, vs LPS group; for gene expressions of inflammatory factors (IL-1β, IL-18, TNF-α, MCP-1) / mRNA levels of Kim-1 and NGAL in kidney tissues: Qpcr; for protein expressions of renal inflammatory factors (TLR4, p-NFκB/NFκB, pro-IL-1β/IL-1β): western blotting. An excerpt:
The kidney injury induced by treatment with endotoxin phosphorus lipopolysaccharides is a classical and standard animal model that simulates the acute kidney injury induced by clinical infection. With the mouse endotoxin phosphorus lipopolysaccharide model, we administered the alginate oligosaccharides with different uniform degrees of polymerization and a mixture thereof, and then compared with a blank group and a non-administrated model group to investigate the therapeutic effects of the individual alginate oligosaccharides with a uniform degree of polymerization.
24 male C57/B16 mice of 22-28 grams were selected. […] LPS was used for modeling to induce the occurrence of sepsis-associated acute kidney injury. During modeling, each model group was intraperitoneally injected with LPS at 15 mg/kg, and the control group was intraperitoneally injected with the same volume of normal saline. Immediately after modeling, the mice were put back into the mouse metabolic cages for observation, in which the weight, food intake, water intake and urine output of the mice were measured. The mice were sacrificed 24 hours later for sampling, and urine was collected. […] Then, the serum creatinine in the mice was determined by using the creatinine assay kit from Nanjing Jiancheng, with the results shown in FIG. 23. During sampling, the kidneys on both sides were isolated, the cortex and inner medulla of each kidney were isolated, and the cortex was stored in trizol. When in use, mRNAs in the cortex were extracted using the trizol method, and the mRNA expressions of AKI biomarkers (KIM-1 and NGAL, with the results shown in FIG. 24) and inflammatory factors (IL-1β, IL-18, TNF-α, and MCP-1, with the results shown in FIG. 25) were detected by the Qpcr method. A tissue lysis buffer was added to homogenize the kidneys by ultrasound, the total protein was then extracted, and the inflammatory factors (p-NFκB/NFκB, pro-IL-1β/IL-1β) in the renal cortex tissues were detected by western blotting. The experimental data were statistically analyzed by one-way ANOVA.
The same experimental method was used as that for the alginate disaccharides. The serum creatinine in the mice was determined by using the creatinine assay kit from Nanjing Jiancheng, with the results shown in FIG. 27. During sampling, the kidneys on both sides were isolated, the cortex and inner medulla of each kidney were isolated, and the cortex was stored in trizol. When in use, mRNAs in the cortex were extracted using the trizol method, and the mRNA expressions of AKI biomarkers (KIM-1 and NGAL, with the results shown in FIG. 28) and inflammatory factors (IL-1β, IL-18, TNF-α, and MCP-1, with the results shown in FIG. 29) were detected by the Qpcr method. A tissue lysis buffer was added to homogenize the kidneys by ultrasound, the total protein was then extracted, and the inflammatory factors (p-NFκB/NFκB, pro-IL-IP/IL-1β) in the renal cortex tissues were detected by western blotting. In addition, the animals were sacrificed after the last blood collection, the kidneys were fixed in 4% formaldehyde solution, and subjected to conventional paraffin embedding, sectioning, and HE staining to observe the general kidney tissue morphology under a light microscope. The experimental data were statistically analyzed by one-way ANOVA.
The same experimental method was used as that for the alginate disaccharides and alginate trisaccharides. […] The serum creatinine in the mice was determined by using the creatinine assay kit from Nanjing Jiancheng, with the results shown in FIG. 32. During sampling, the kidneys on both sides were isolated, the cortex and inner medulla of each kidney were isolated, and the cortex was stored in trizol.
(Immunoblotting shows a protein as a band on a membrane.)

Experiment [2] deals with rats with AKI induced by renal ischemia-reperfusion (I/R) injury. Description: Rat acute kidney injury (AKI) induced by ischemia-reperfusion (I/R). The class given is in vivo. As to conditions: for level of serum creatinine / 24-hour urine output: Sprague Dawley rats, intragastric; for level of serum creatinine: 24 h after I/R; for mRNA levels of Kim-1 and NGAL in kidney tissues / inflammatory factors in kidney tissues (TLR4, p-NFκB/NFκB, pro-IL-1β/IL-1β): renal cortex; for mRNA levels of Kim-1 and NGAL in kidney tissues: 0.1 g/kg/day intragastric; for inflammatory factors in kidney tissues (TLR4, p-NFκB/NFκB, pro-IL-1β/IL-1β): western blotting, doses 0.01, 0.05, 0.1 g/kg/day, dose dependent. The source says:
Ischemia-reperfusion induced kidney injury is a classical animal model that simulates the acute kidney injury caused by clinical hypoperfusion. With the rat ischemia-reperfusion model, the author of the invention administered the alginate oligosaccharides with a uniform degree of polymerization as prepared by Example 1-3 and a mixture thereof, and then carried out comparison with a blank group and a non-administrated model group to investigate the therapeutic effects of the several alginate oligosaccharides with a uniform degree of polymerization.
30 male Sprague Dawley rats (purchased from the Laboratory Animal Center of Sun Yat-sen University) of 220-250 grams were selected. Before treatment, the 24-hour urine output was collected and measured without abnormalities. The rats to be modeled were randomly divided into the following groups: a sham group, a model group, and three alginate disaccharide groups with the doses of 0.01 g/kg/day, 0.05 g/kg/day and 0.1 g/kg/day respectively (6 rats in each group). In the present invention, the alginate disaccharide is abbreviated as “AOS2”. Intragastric administration was adopted, and rats in the model group and the sham group were all fed by gavage with the same volume of normal saline. On the day of operation, the rats were anesthetized intraperitoneally with 3% pentobarbital sodium and subjected to routine skin disinfection. The abdomen was sectioned to expose the left and right kidneys. In the sham group, the kidneys were only examined, and then the incision was sutured layer by layer to end the operation. In the model group and the modeled administration group, large bulldog clamps were used for occlusion of the renal pedicles on both sides, then the kidneys were recovered in place, and the incision was covered with gauze and dropwise added with a small amount of normal saline for rehydration. After 45 minutes, the bulldog clamps on both sides were released, and the incision was sutured layer by layer to end the operation. After operation, the rats were placed on a heating pad at 37° C. to wait for resuscitation, and then placed back into metabolic cages, in which the weight, food intake, water intake and urine output of the rats were measured. The rats were routinely fed after operation and sacrificed 24 hours later for sampling. […] Then, the serum creatinine in the rats was determined by using the creatinine assay kit from Nanjing Jiancheng, with the results shown in FIG. 10. During sampling, the kidneys on both sides were isolated, the cortex and inner medulla of each kidney were isolated, and the cortex was stored in trizol. When in use, mRNAs in the cortex were extracted using the trizol method, and the mRNA expressions of AKI biomarkers (KIM-1 and NGAL) were detected. A tissue lysis buffer was added to homogenize the kidneys by ultrasound, the total protein was then extracted, and the inflammatory factors (p-NFκB/NFκB and pro-IL-1β/IL-1β) in the renal cortex tissues were detected by western blotting. The experimental data were statistically analyzed by one-way ANOVA.
With the same experimental method as that for the alginate disaccharides, the effect of alginate trisaccharides against the rat acute kidney injury induced by ischemia-reperfusion was investigated. In the present invention, the alginate trisaccharide is abbreviated as “AOS3”. The serum creatinine in the rats was determined by using the creatinine assay kit from Nanjing Jiancheng, with the results shown in FIG. 14. During sampling, the kidneys on both sides were isolated, the cortex and inner medulla of each kidney were isolated, and the cortex was stored in trizol. When in use, mRNAs in the cortex were extracted using the trizol method, and the mRNA expression of AKI biomarkers (KIM-1 and NGAL) was detected. […]

Where [3] appears, read: three doses 0.01, 0.05, 0.1 g/kg/day, vs I/R model group.

Take “alginate disaccharide sodium salt [AOS2]”: in experiment [1], the “level of serum creatinine” value is “decreased significantly and could basically return to a normal level”; the “gene expressions of inflammatory factors (IL-1β, IL-18, TNF-α, MCP-1)” value (from here on “gene expressions of inflammatory factors”) is recorded as “significantly reduced the production of inflammatory factors”; the “mRNA levels of Kim-1 and NGAL in kidney tissues” value (shortened to “mRNA levels of Kim-1 and NGAL”) is recorded as “significantly reduced”; the “protein expressions of renal inflammatory factors (TLR4, p-NFκB/NFκB, pro-IL-1β/IL-1β)” value was “significantly reduced the production of the inflammatory factors”. In experiment [2] (0.1 g/kg/day), the “level of serum creatinine” value was “basically return to a normal level”. For the same substance, in experiment [2] (setting [3]), the “level of serum creatinine” value is listed as “decreased significantly” and the 24-hour urine output entry is given as “decreased somewhat”. In addition, the “mRNA levels of Kim-1 and NGAL” value in experiment [2] (vs I/R model group) was “significantly reduced the expressions of both markers”. The “inflammatory factors in kidney tissues (TLR4, p-NFκB/NFκB, pro-IL-1β/IL-1β)” value in experiment [2] is on record as “reduced the production of inflammatory factors”.
On to “alginate tetrasaccharide sodium salt [AOS4]”, for which, in experiment [1], the “level of serum creatinine” value is “significantly reduced the serum creatinine”; the “gene expressions of inflammatory factors” value is recorded as “significantly reduced”; the “mRNA levels of Kim-1 and NGAL” value is listed as “significantly reduced”; the “protein expressions of renal inflammatory factors (TLR4, p-NFκB/NFκB, pro-IL-1β/IL-1β)” value is listed as “significantly inhibited the inflammatory responses of the kidneys”. In experiment [2] (0.1 g/kg/day), the 24-hour urine output result was “obviously better than that of the mixed saccharides” and the “level of serum creatinine” value is listed as “restore to a normal level”. For the same substance, in experiment [2] (setting [3]), the “level of serum creatinine” value is “decreased significantly” and the 24-hour urine output entry is on record as “somewhat reduced”. In experiment [2] (vs I/R model group), the “mRNA levels of Kim-1 and NGAL” value is reported as “significantly reduce both markers”. Further, the “inflammatory factors in kidney tissues (TLR4, p-NFκB/NFκB, pro-IL-1β/IL-1β)” value in experiment [2] is “significantly reduce the production of inflammatory factors”.
Turning to “alginate trisaccharide sodium salt [AOS3]”, in experiment [1], the “level of serum creatinine” value is “decreased significantly and could basically return to a normal level”; the “gene expressions of inflammatory factors” value is listed as “significantly reduced the production of inflammatory factors”; the “mRNA levels of Kim-1 and NGAL” value is on record as “significantly reduced”; the “protein expressions of renal inflammatory factors (TLR4, p-NFκB/NFκB, pro-IL-1β/IL-1β)” value is on record as “significantly reduced the production of the inflammatory factors”. The renal histopathological manifestations entry in experiment [1] (HE staining, LPS+AOS3 group) was “the glomeruli and renal tubules showed mild lesions”. The renal histopathological manifestations entry in experiment [2] (HE staining, 0.1 g/kg/day) is “the renal tubules showed mild lesions”. Moreover, in experiment [2] (0.1 g/kg/day), the 24-hour urine output result is “basically recovered to the normal level” and the “level of serum creatinine” value is “basically return to a normal level”. In experiment [2] (setting [3]), the “level of serum creatinine” value was “decreased significantly” and the 24-hour urine output result is listed as “somewhat decreased”. The “mRNA levels of Kim-1 and NGAL” value in experiment [2] (vs I/R model group) is “significantly reduced the expressions of both markers”. In experiment [2], the “inflammatory factors in kidney tissues (TLR4, p-NFκB/NFκB, pro-IL-1β/IL-1β)” value is “reduce the production of inflammatory factors”.
